Measured values from patent publication US20130302442A1, “METHODS OF USING (4S,4AS,5AR,12AS)-4-DIMETHYLAMINO-3,10,12,12A-TETRAHYDROXY-7-[(METHOXY(METHYL)AMINO)-METHYL]-1,11-DIOXO-1,4,4A,5,5A,6,11,12A-OCTAHYDRO-NAPHTHACENE-2-CARBOXYLIC ACID AMIDE” (priority 2012, published 2013).
In brackets after ≈: the same amount, converted by molar mass. Read-outs that look alike come from different tables or passages of the source.

Key:
S. epidermidis = assay: In vitro MIC testing, antibacterial spectrum of activity; format: cell-based, Staphylococcus epidermidis; details: Staphylococcus epidermidis; for MIC50: read-out: MIC50; for MIC90: read-out: MIC90
P. acnes = assay: as above; format: cell-based, Propionibacterium acnes; details: Cutibacterium acnes
S. agalactiae = assay: as above; format: cell-based; details: Streptococcus agalactiae
[1] = tested on: Streptococcus spp. [Group C]; assay: as above; format: cell-based; details: Streptococcus spp. [Group C] (30 isolates)
S. pneumoniae = assay: as above; format: cell-based, Streptococcus pneumoniae; details: Streptococcus pneumoniae, S. pneumoniae [PSSP] (32 isolates)
S. haemolyticus = assay: as above; format: cell-based; details: Staphylococcus haemolyticus, S. haemolyticus (33 isolates); for MIC90: read-out: MIC90
[2] = tested on: methicillin-sensitive S. aureus (MSSA); assay: In vitro MIC against isolates of MSSA; format: cell-based, Staphylococcus aureus; details: Staphylococcus aureus, MSSA (34 isolates)
[3] = tested on: hospital-associated methicillin-resistant S. aureus (MRSA-HA); assay: In vitro MIC against isolates of MRSA-HA; format: cell-based, Staphylococcus aureus; details: Staphylococcus aureus; MRSA-HA (33 isolates)
S. aureus = assay: In vitro MIC testing, antibacterial spectrum of activity; format: cell-based, Staphylococcus aureus; details: Staphylococcus aureus
P. avidum = assay: as above; format: cell-based; details: P. avidum [clinical isolates] (4 isolates)
E. faecalis = assay: as above; format: cell-based; details: Enterococcus faecalis
E. faecium = assay: as above; format: cell-based; details: Enterococcus faecium
S. pyogenes = assay: as above; format: cell-based; details: Streptococcus pyogenes
[4] = tested on: community-acquired methicillin-resistant S. aureus (MRSA-CA); assay: In vitro MIC against isolates of MRSA-CA; format: cell-based, Staphylococcus aureus; details: Staphylococcus aureus; MRSA-CA (33 isolates)
Chlamydia trachomatis [5] = assay: Susceptibility testing (MIC, MBC) of 10 isolates of C. trachomatis in HEp-2 cells; format: cell-based
Chlamydia pneumoniae = assay: Susceptibility testing (MIC, MBC) of 10 isolates of C. pneumoniae in HEp-2 cells; format: cell-based
Chlamydia trachomatis [6] = assay: In vitro susceptibility testing of Chlamydia trachomatis in HEp-2 cells (first study); format: cell-based; details: Chlamydia trachomatis, C. trachomatis strains, read-out: MIC at which 90% of the strains were inhibited (MIC90)
[7] = tested on: Streptococcus intermedius; assay: In vitro MIC testing against anaerobic bacteria; format: cell-based; details: ATCC27335; Streptococcus intermedius 1203, ATCC 27335
[8] = tested on: Prevotella melaninogenica; assay: In vitro MIC testing against anaerobic bacteria; format: cell-based; details: Prevotella melaninogenica 3443, read-out: MIC
Bifidobacterium brevi = assay: In vitro MIC testing against anaerobic bacteria; format: cell-based; details: ATCC15698; Bifidobacterium brevi 3967, ATCC 15698
E. cloacae = assay: In vitro MIC testing, antibacterial spectrum of activity; format: cell-based; details: Enterobacter cloacae; E. cloacae (30 isolates)
K. pneumoniae = assay: as above; format: cell-based
Prevotella spp. = assay: In vitro MIC testing against anaerobic bacteria; format: cell-based
[9] = tested on: Lactobacillus acidophilus; assay: In vitro MIC testing against anaerobic bacteria; format: cell-based; details: Lactobacillus acidophilus 0681
Salmonella Spp. = assay: In vitro MIC testing, antibacterial spectrum of activity; format: cell-based; details: Salmonella
P. granulosum = assay: as above; format: cell-based; details: P. granulosum [clinical isolates] (3 isolates)
Bifidobacterium infantis = assay: In vitro MIC testing against anaerobic bacteria; format: cell-based; details: ATCC15702; Bifidobacterium infantis 3966, ATCC 15702
P. aeruginosa = assay: In vitro MIC testing, antibacterial spectrum of activity; format: cell-based; details: Pseudomonas aeruginosa; P. aeruginosa (11 isolates)
Bacteroides ovatus = assay: In vitro MIC testing against anaerobic bacteria; format: cell-based; details: Bacteroides ovatus 3508, read-out: MIC
Clostridium perfringens = assay: microbe, parasite or virus in culture; format: cell-based
Bifidobacterium longum = assay: In vitro MIC testing against anaerobic bacteria; format: cell-based; details: ATCC15707; Bifidobacterium longum 3968, ATCC 15707
Bifidobacterium bifidum = assay: In vitro MIC testing against anaerobic bacteria; format: cell-based; details: ATCC15696; Bifidobacterium bifidum 3965, ATCC 15696
Lactobacillus plantarum = assay: In vitro MIC testing against anaerobic bacteria; format: cell-based; details: Lactiplantibacillus plantarum, ATCC39268; Lactobacillus plantarum 2791, ATCC 39268
Lactobacillus casei = assay: In vitro MIC testing against anaerobic bacteria; format: cell-based; details: Lacticaseibacillus casei, ATCC393; Lactobacillus casei 1722, ATCC 393
Veillonella parvula = assay: In vitro MIC testing against anaerobic bacteria; format: cell-based; details: ATCC17745; Veillonella parvula 1272, ATCC 17745
E. coli = assay: In vitro MIC testing, antibacterial spectrum of activity; format: cell-based; details: Escherichia coli; E. coli (33 isolates); read-out: MIC90
[10] = S. epidermidis [MRSE] (32 isolates)
[11] = S. epidermidis [MSSE] (31 isolates)
[12] = Klebsiella pneumoniae, K. pneumoniae (31 isolates)
[13] = P. acnes [clinical isolates] (55 isolates)

Structure (SMILES): CCC[C@@H]1C[C@@H](C(=O)N[C@@H]([C@H]2O[C@H](SC)[C@H](O)[C@@H](O)[C@H]2O)[C@H](C)Cl)N(C)C1 [Clindamycin]
- MIC50 (S. epidermidis; [10]): > 32 µg/mL
- MIC90 (S. epidermidis; [10]): > 32 µg/mL
- MIC50 (S. epidermidis; [11]): 0.12 µg/mL (≈ 0.282 µM)
- MIC90 (S. epidermidis; [11]): > 32 µg/mL
- MIC50 (P. acnes; read-out: MIC50): ≤ 0.06 µg/mL
- MIC90 (P. acnes; read-out: MIC90): 4 µg/mL (≈ 9.41 µM)
- MIC50 (S. agalactiae): 0.06 µg/mL (≈ 0.141 µM)
- MIC90 (S. agalactiae): > 16 µg/mL
- MIC50 ([1]; read-out: MIC50): 0.06 µg/mL (≈ 0.141 µM)
- MIC90 ([1]; read-out: MIC90): 0.12 µg/mL (≈ 0.282 µM)
- MIC50 (S. pneumoniae; read-out: MIC50): 0.03 µg/mL (≈ 0.0706 µM)
- MIC90 (S. pneumoniae; read-out: MIC90): 0.06 µg/mL (≈ 0.141 µM)
- MIC50 (S. haemolyticus; read-out: MIC50): 0.12 µg/mL (≈ 0.282 µM)
- MIC90 (S. haemolyticus): 1 µg/mL (≈ 2.35 µM)
- MIC50 [2]: 0.12 µg/mL (≈ 0.282 µM)
- MIC90 ([2]; read-out: MIC90): > 32 µg/mL
- MIC50 [3]: 2 µg/mL (≈ 4.71 µM)
- MIC90 [3]: > 32 µg/mL
- MIC50 (S. aureus; MRSA): 0.25 µg/mL (≈ 0.588 µM)
- MIC90 (S. aureus; MRSA): > 32 µg/mL
- MIC50 (S. aureus; MSSA): 0.25 µg/mL (≈ 0.588 µM)
- MIC90 (S. aureus; MSSA): > 32 µg/mL
- MIC Range (P. avidum): ≦0.06-0.5 μg/mL
- MIC50 (E. faecalis): > 32 µg/mL
- MIC90 (E. faecalis): > 32 µg/mL
- MIC50 (E. faecium): > 32 µg/mL
- MIC90 (E. faecium): > 32 µg/mL
- MIC50 (E. faecium; VRE): > 32 µg/mL
- MIC90 (E. faecium; VRE): > 32 µg/mL
- MIC50 (S. pyogenes): 0.03 µg/mL (≈ 0.0706 µM)
- MIC90 (S. pyogenes): 0.06 µg/mL (≈ 0.141 µM)
- MIC50 [4]: 0.12 µg/mL (≈ 0.282 µM)
- MIC90 [4]: 0.25 µg/mL (≈ 0.588 µM)

Structure (SMILES): C[C@H]1COc2c(N3CCN(C)CC3)c(F)cc3c(=O)c(C(=O)O)cn1c23 [Levofloxacin]
- MIC Range (Chlamydia trachomatis [5]; 72 h): 0.125 to 0.5 µg/mL
- MIC50 (Chlamydia trachomatis [5]; Chlamydia trachomatis, 72 h): 0.25 µg/mL (≈ 0.692 µM)
- MIC90 (Chlamydia trachomatis [5]; Chlamydia trachomatis, 72 h): 0.25 µg/mL (≈ 0.692 µM)
- MBC (Chlamydia trachomatis [5]; Chlamydia trachomatis, after passage, read-out: MBC 90%): 0.5 µg/mL (≈ 1.38 µM)
- MBC Range (Chlamydia trachomatis [5]; after passage): 0.125 to 1 µg/mL
- MIC Range (Chlamydia pneumoniae; 72 h): 0.5 µg/mL (≈ 1.38 µM)
- MIC50 (Chlamydia pneumoniae; Chlamydia pneumoniae, 72 h): 0.5 µg/mL (≈ 1.38 µM)
- MIC90 (Chlamydia pneumoniae; Chlamydia pneumoniae, 72 h): 0.5 µg/mL (≈ 1.38 µM)
- MBC (Chlamydia pneumoniae; Chlamydia pneumoniae, after passage, read-out: MBC 90%): 2 µg/mL (≈ 5.53 µM)
- MBC 90% (Chlamydia pneumoniae; after passage): 2 µg/mL (≈ 5.53 µM)
- MBC Range (Chlamydia pneumoniae; after passage): 0.125 to 2 µg/mL
- MIC90 (Chlamydia trachomatis [6]): 0.25 µg/mL (≈ 0.692 µM)

Structure (SMILES): CN(C)[C@@H]1C(O)=C(C(N)=O)C(=O)[C@@]2(O)C(O)=C3C(=O)c4c(O)cccc4[C@@](C)(O)[C@H]3C[C@@H]12 [Tetracycline, tetracycline]
- MIC [7]: 2 µg/mL (≈ 4.5 µM)
- MIC [8]: 8 µg/mL (≈ 18 µM)
- MIC (Bifidobacterium brevi): 1 µg/mL (≈ 2.25 µM)
- MIC90 (E. cloacae): > 64 µg/mL
- MIC Range (K. pneumoniae; K. pneumoniae [tetS] (7 isolates)): 0.5 to 4 µg/mL
- MIC50 (K. pneumoniae; [12]): 8 µg/mL (≈ 18 µM)
- MIC90 (K. pneumoniae; [12]): > 64 µg/mL
- MIC50 (P. acnes): 0.5 µg/mL (≈ 1.13 µM)
- MIC90 (P. acnes): 4 µg/mL (≈ 9 µM)
- MIC50 (P. acnes; [13]): 1 µg/mL (≈ 2.25 µM)
- MIC90 (P. acnes; [13]): 2 µg/mL (≈ 4.5 µM)
- MIC90 (S. agalactiae): > 32 µg/mL
- MIC (Prevotella spp.; Prevotella spp. 3564): 1 µg/mL (≈ 2.25 µM)
- MIC (Prevotella spp.; Prevotella spp. 3568): 4 µg/mL (≈ 9 µM)
- MIC [9]: 2 µg/mL (≈ 4.5 µM)
- MIC50 (Salmonella Spp.): 2 µg/mL (≈ 4.5 µM)
- MIC90 (Salmonella Spp.): > 64 µg/mL
- MIC90 (S. haemolyticus): > 32 µg/mL
- MIC Range (P. granulosum): 1 to 2 µg/mL
- MIC (Bifidobacterium infantis): 1 µg/mL (≈ 2.25 µM)
- MIC50 (P. aeruginosa): 64 µg/mL (≈ 144 µM)
- MIC (Bacteroides ovatus): 0.5 µg/mL (≈ 1.13 µM)
- MIC (Clostridium perfringens): > 16 µg/mL
- MIC (Clostridium perfringens; Clostridium perfringens 3518): > 16 µg/mL
- MIC (Bifidobacterium longum): 2 µg/mL (≈ 4.5 µM)
- MIC Range (P. avidum): 1 to 8 µg/mL
- MIC (Bifidobacterium bifidum): 1 µg/mL (≈ 2.25 µM)
- MIC (Lactobacillus plantarum): 2 µg/mL (≈ 4.5 µM)
- MIC (Lactobacillus casei): 2 µg/mL (≈ 4.5 µM)
- MIC50 (E. faecium): 1 µg/mL (≈ 2.25 µM)
- MIC90 (E. faecium): > 64 µg/mL
- MIC50 (E. faecium; VRE): 2 µg/mL (≈ 4.5 µM)
- MIC90 (E. faecium; VRE): > 64 µg/mL
- MIC (Veillonella parvula): 1 µg/mL (≈ 2.25 µM)
- MIC90 (E. coli): > 64 µg/mL
